# Experimental data reported in patent publication US10231971B2, “Pharmaceutical composition for preventing and treating dry eye diseases, containing imatinib as active ingredient” (AVIXGEN INC., priority 2015, dated 2019).
# Columns and labels:
# [1] = system: keratoconjunctivitis sicca (dry eye) animal model; assay: Invasion of specific inflammatory cells into the cornea: LSP-1 immunostaining in keratoconjunctivitis sicca model; format: in vivo, Spraque-Dawley (SD) rats; settings: imatinib eye drop 0.1%
# Procedure: An experiment was carried out using the same administration method as that used in the animal model of Example 1, and then an inflammation inhibitory effect of imatinib on specific inflammatory cells invaded into the cornea was identified.
# To identify inflammatory cells in the cornea in keratoconjunctivitis sicca (dry eye), the eye was cryosectioned, and inflammatory cells having an antigen of LSP-1 were stained and observed (See FIG. 5). Inflammation-associated cells such as lymphocytes, neutrophils, and macrophages have LSP-1 can be observed after being immunostained using an LSP-1 antibody. Inflammatory cells were observed by 0.61±0.05 in a control (a drug-non-treated group) and by 0.52±0.05 in an imatinib eye drop (0.1%) (See FIG. 6).
# [2] = system: keratoconjunctivitis sicca (dry eye) animal model; assay: Corneal epithelium protection: lissamine green staining of the cornea in keratoconjunctivitis sicca model; format: in vivo, Spraque-Dawley (SD) rats
# Procedure: To carry out an experiment for dry corneal epithelial damage, a dry eye animal model was constructed. 8-week-old Spraque-Dawley (SD) rats (available from Orient Bio) were used as an animal, keratoconjunctivitis sicca was induced by administering an eye drop containing 0.1% benzalkonium chloride (Sigma Aldrich) in 1% atropine sulfate (Alcon) twice a day for 2 weeks.
# The imatinib eye drop (1 mg/ml) was administered dropwise to an eye twice a day for 1 week after 7 days of administration of 1% atropine sulfate and 0.1% benzalkonium chloride. To compare therapeutic effects, a 0.05% Cyclosporin eye drop (Restasis, Allergan) was used as a reference drug.
# Corneal epithelial damage was identified in the keratoconjunctivitis sicca animal model by staining a surface of the cornea with a 1% lissamin green solution and observing a damaged region thereof (see FIG. 1).
# Damage to corneal epithelium cells due to dryness was identified in a keratoconjunctivitis sicca (dry eye)-induced cornea by staining a dried state of the corneal epithelium cells with lissamin green (see FIG. 1). […] A stained area after staining was expressed as a percentage (%) with respect to a total corneal area.
# [3] = system: keratoconjunctivitis sicca (dry eye) animal model; settings: imatinib eye drop (0.1 mg/ml), twice a day for 1 week; FIG. 4
# Procedure: White SD rats were used as an animal, and keratoconjunctivitis sicca was induced by administering 1% atropine sulfate and 0.1% benzalkonium chloride dropwise to an eye twice a day for 2 weeks.
# An imatinib eye drop (0.1 mg/ml) was administered dropwise to an eye twice a day for 1 week after 7 days of administration of 1% atropine sulfate and 0.1% benzalkonium chloride.
# In order to observe corneal degeneration in the keratoconjunctivitis sicca (dry eye) model, F-actin staining was performed. F-actin was stained with phalloidin labeled with a fluorescent material.
structure (smiles),measurement,setting,value
Cc1ccc(NC(=O)c2ccc(CN3CCN(C)CC3)cc2)cc1Nc1nccc(-c2cccnc2)n1 [imatinib],effect on inflammation in keratoconjunctivitis sicca (inflammatory cell staining),[1],had an inflammation inhibitory effect
same,inflammatory cells observed (LSP-1-stained cells in the cornea),"[1]; control (drug-non-treated group) 0.61±0.05, FIG. 6",0.52±0.05
same,lissamine green stained area as percentage of total corneal area,"[2]; concentration-dependent efficacy test, 0.01% (0.1 mg/ml), vehicle control 12.8±1.98%, FIG. 3",8.2±0.97%
same,lissamine green stained area as percentage of total corneal area,"[2]; concentration-dependent efficacy test, 0.05% (0.5 mg/ml), vehicle control 12.8±1.98%, FIG. 3",6.18±0.9%
same,lissamine green stained area as percentage of total corneal area,"[2]; concentration-dependent efficacy test, 0.1% (1 mg/ml), vehicle control 12.8±1.98%, FIG. 3",3.7±0.87%
same,lissamine green stained area as percentage of total corneal area,"[2]; concentration-dependent efficacy test, 0.5% (5 mg/ml), vehicle control 12.8±1.98%, FIG. 3",3.5±1.1%
same,lissamine green stained area as percentage of total corneal area,"[2]; concentration-dependent efficacy test, 1.0% (10 mg/ml), vehicle control 12.8±1.98%, FIG. 3",3.1±1.2%
same,effect on lissamine green staining when administered according to concentration,"[2]; imatinib 0.01% to 1.0%, FIG. 3",concentration-dependent effect
same,lissamine green stained area as percentage of total corneal area,"[2]; imatinib 0.1% (1 mg/ml) eye drop, twice a day for 1 week, vehicle control 11±1.26%, FIG. 2",2.6±0.39%
same,"corneal degeneration (keratinization of corneal epithelial cells, F-actin staining)",[3],not observed
